pEC50, pIC50: −log10 of the molar value. Calls of active or inactive are those of the source.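 The calls were made as follows: active = compounds giving half or more protection of infected cells from virus-caused growth loss, again on retest; inactive = the rest.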
System: CEM cells HIV-1 protection, formazan growth assay
Test: NCI AIDS Antiviral Assay
Conditions: for pIC50: measured here: growth of uninfected CEM cells
Procedure, shortened: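 Human CEM cells, uninfected and HIV-1-infected, exposed to five drug concentrations; growth measured by soluble formazan assay and scored as percent protection from infection, with protecting compounds retested.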

| SMILES | pEC50 | pIC50 | outcome |
| --- | --- | --- | --- |
| Cc1cccc(NC(=O)C(=O)C(C(=O)c2ccccc2F)C2OC(=O)c3ccccc32)c1Cl (stereo unspecified) | < 3.69 | 4.92 |  |
| CCOC(=O)c1c[nH]c2ccc3c(c2c1=O)S(=O)(=O)CC3 (tested in a mixture with another compound) |  |  | inactive |
| O=C1CC(c2c(-c3ccccc3)[nH]c3ccccc23)C(=O)N1 (stereo unspecified) |  |  | inactive |
| CNC(=O)c1n[nH][nH]c1=O | < 3.70 | < 3.70 |  |
| CCOC(=O)C1=C(OC(OCC)C([Se]c2ccccc2)C(C)C)CCC1 (stereo unspecified) | < 4.63 | < 4.63 |  |
| O=C(O)c1nc2ccc(C(F)(F)F)cc2nc1NCc1ccc(Cl)c(Cl)c1 | < 3.70 | 4.72 |  |
| [CH3][Sn]1([CH3])[O]CC(COc2cc(Cl)c(Cl)cc2Cl)[O]1 (stereo unspecified) | < 4.62 | 4.81 |  |
| COc1cc2c(cc1O)C1(Cc3ccc4c(c3[C@@H]1O)OCO4)N(C)CC2 (stereo partly specified) | < 3.85 | < 3.85 |  |
| CCSc1nc(-c2ccc(OC)cc2)c(C#N)c(=O)n1C1OCC(OC(C)=O)C(OC(C)=O)C1OC(C)=O (stereo unspecified) | < 3.70 | < 3.70 |  |
| O=C1NC(=S)NC1C(Cc1ccccc1)c1ccccc1 (stereo unspecified) | < 3.70 | 4.07 |  |
| Cc1[nH]c2c(C)cccc2c1C1Cc2ccccc2N1 (stereo unspecified) |  |  | inactive |
| CCP(=O)(CC)C(Cl)(Cl)C(O)C(Cl)(Cl)Cl (stereo unspecified) | < 3.70 | < 3.70 |  |
| Cc1ccc(OCC2OC(n3cnc4nc(N)nc(Cl)c43)CC2Oc2ccc(C)cc2)cc1 (stereo unspecified) | < 3.70 | < 3.70 |  |
| CCOC(=O)CCC1(C(=O)OC)CCCC1=O (stereo unspecified) | < 2.99 | < 2.99 |  |
| COc1ccc(-c2cc(=O)c3ccccc3o2)c(OC)c1OC | < 3.70 | 4.50 |  |
| CC(C)(C)C(=O)/C=C/c1cccc(C#N)c1 | < 3.91 | 5.18 |  |
| Nc1ncnc2c1ncn2C1CC(OC2CCCCO2)C(CO)O1 (stereo unspecified) | < 3.70 | < 3.70 |  |
| Cc1cc(C)nc(NS(=O)(=O)c2ccc(NC(=O)c3ccccc3SC(=O)CCCC[n+]3ccccc3)cc2)n1 | 4.77 | 4.29 |  |
| CCCCCCNCCc1cnc[nH]1 | < 3.70 | < 3.70 |  |
| COc1ccc(C2OC(=O)c3ccc4ccccc4c32)c(C)c1 (stereo unspecified) | < 4.35 | 4.61 |  |
| COc1cc2c3c(cccc3c1)C(=O)N(CCN1CCCC1)C2=O | < 3.70 | 5.61 |  |
| CCCCCCCCCCCCCCCc1nc(SCC(=O)O)n[nH]1 | < 5.41 | < 5.41 |  |

| SMILES | pEC50 | pIC50 | outcome |
| --- | --- | --- | --- |
| C=Cc1c2[n-]c(c1C)/C=c1\[n-]/c(c(C)c1C=C)=C\c1[n-]c(c(CCC(=O)O)c1C)/C=c1\[n-]/c(c(C)c1CCC(=O)O)=C\2.[Fe+4] | < 4.84 | < 4.84 |  |
| Oc1ccccc1-c1cnnc(-c2ccccc2O)c1 | < 4.01 | 4.74 |  |
| Cn1c(=O)[nH]c2[nH]c3ccccc3c2c1=O | < 3.70 | < 3.70 |  |
| COC(=O)C1CC(c2ccc(Cl)cc2)=NO1 (stereo unspecified) | < 3.55 | < 3.55 |  |
| O=C1OCCSCCOCCSCCOC(=O)c2cccc1n2 |  |  | inactive |
| CON(C)C(=O)CNC(=O)OCC1c2ccccc2-c2ccccc21 | < 3.70 | < 4.00 |  |
| CC(=O)Nc1ccc(C(=O)N2N=C(C)/C(=C/c3ccccc3O)C2=O)cc1 | < 4.29 | < 4.29 |  |
| N#C/C1=C(\N)CCSSSC1 | < 3.34 | 4.64 |  |
| CC(=O)OCC1OC(Sc2nc(-c3ccccc3)c(C#N)c(=O)n2C2OC(COC(C)=O)C(OC(C)=O)C(OC(C)=O)C2OC(C)=O)C(OC(C)=O)C(OC(C)=O)C1OC(C)=O (stereo unspecified) | < 3.82 | 4.71 |  |
| CN/N=C(/C=C/c1ccccc1)C(C)C | < 3.70 | < 3.70 |  |
| N=C(c1ccccc1)N(O)C1CCCCC1 |  |  | inactive |
| N#CC(C(=N/O)/C(=N/O)C(C#N)c1ccc(Cl)cc1)c1ccc(Cl)cc1 (stereo unspecified) | < 3.33 | 3.75 |  |
| O=C1CCSC2=C1SCc1sccc12 |  |  | inactive |
| Cc1cccc(NP2(Nc3cccc(C)c3)=NP(Nc3cccc(C)c3)(Nc3cccc(C)c3)=NP(Nc3cccc(C)c3)(Nc3cccc(C)c3)=NP(Nc3cccc(C)c3)(Nc3cccc(C)c3)=N2)c1 | < 3.70 | < 3.70 |  |
| CC(C)(C)CNC(=O)NCn1cc(-c2ccccc2)nn1 | < 3.70 | < 3.70 |  |
| Cc1nc(Nc2ccccc2)sc1C(=O)CC(=O)C(=O)Nc1c(C(C)C)cccc1C(C)C | < 4.11 | < 4.11 |  |
| C=CC1CN2CCC1C/C2=N\O (stereo unspecified) |  |  | inactive |
| CC(=O)Nc1cccc(C(CC(=O)O)CC(=O)O)c1 | < 3.70 | < 3.70 |  |
| O=C1c2ccccc2-c2c1c(-c1ccccc1)c1n2C2(C(=O)c3ccccc3C2=O)C2C(=O)N(c3ccccc3)C(=O)C12 (stereo unspecified) | < 3.70 | 3.92 |  |
| CNc1ncnc2nc(OC)[nH]c12 | < 3.98 | < 3.98 |  |
| CC(=O)OC1CC2C(=S)Nc3cc4c(cc3C(=O)N2C1)OCO4 (stereo unspecified) | < 3.70 | < 3.70 |  |
| CCOP(=O)(OCC)OP(=O)(OCC)OCC | < 3.06 | < 3.06 |  |

| SMILES | pEC50 | pIC50 | outcome |
| --- | --- | --- | --- |
| CCOC(=O)c1cc(C2(OC)CCN(Cc3ccccc3)C2=O)c(-c2cc(C)no2)[nH]1 (stereo unspecified) | < 3.70 | 3.83 |  |
| CCOC(CN=C=S)OCC | < 3.70 | 4.56 |  |
| CC1(C)CC23C(=O)N(c4ccccc4)C(=Nc4ccccc4)NC2=CC(C#N)=C(C#N)C3O1 (stereo unspecified) | < 4.92 | < 4.92 |  |
| CCOc1ccc(/C=C/C(=O)c2ccccc2)cc1 | < 3.70 | 4.46 |  |
| CCn1c(=O)c2c3ccc(OC)cc3[nH]c2c2ccc(OC)cc21 | < 3.70 | 4.25 |  |
| CC(C)(C)[Si](C)(C)O[C@@H](C(=O)OC1C=CCCC1)[C@@H](NC(=O)c1ccccc1)c1ccccc1 (stereo partly specified) | < 3.70 | 4.91 |  |
| Cn1cnc([N+](=O)[O-])c1Sc1nc2ccccc2s1 | < 4.61 | 5.49 |  |
| O=C(O)c1nc2cc(C(F)(F)F)ccc2[nH]c1=O | < 3.70 | < 3.70 |  |
| C/C(=N\NC(=S)N1CC2CCC(CC2)C1)c1cccc(C)n1 | < 4.50 | 6.26 |  |
| Clc1ccc(C(Cc2cccc(Cl)c2)c2c(Cl)nc(N3CCNCC3)nc2Cl)cc1 (stereo unspecified) | < 3.70 | 4.76 |  |
| Cc1ccc2c(c1)C(=O)/C(=N/Nc1ccc(Cl)cc1)CCO2 | < 3.70 | 3.96 |  |
| CC(=O)[O-].O=C([N-]/N=C\c1ccsc1)c1ccncc1.[Ni+2].[OH3+].c1cnc2c(c1)ccc1cccnc12 | < 3.70 | 4.32 |  |
| Oc1cccc(C(O)CNC2CCCCC2)c1 (stereo unspecified) | < 3.70 | < 3.70 |  |
| CCC1c2ccccc2[C@H]2C(c3ccccc3)=NN(c3ccccc3)[C@H]2N1CC (stereo partly specified) | < 3.70 | 4.25 |  |
| O=C1CCC(=O)C(C(=O)CCC(=O)Nc2cccc(Cl)c2)C1 (stereo unspecified) | < 3.25 | < 3.25 |  |
| Cc1ncc2c(n1)NC(c1ccc([N+](=O)[O-])cc1)NC2 (stereo unspecified) | < 4.16 | < 4.16 |  |
| CC(C)C1CO[C@]2(C)CCC(=O)N12 (stereo partly specified) | < 2.87 | < 2.87 |  |
| COc1cc2cc(c1Cl)N(C)C(=O)C[C@H](OC(=O)[C@H](C)N(C)C(C)=O)[C@]1(C)O[C@H]1[C@H](C)[C@@H]1C[C@@](O)(NC(=O)O1)[C@H](OC)C=C/C=C(\C)C2 |  |  | inactive |
| O=C(/C=C/c1ccc(Br)cc1)c1ccccc1 | < 4.74 | 5.02 |  |
| CC[C@@H]1C[C@@H](O)[C@@H]2[C@H](O)[C@H](O)CN2C1 | < 3.70 | < 3.70 |  |
| OCc1ccc2c(c1)CC1(C2)Cc2cc3c(cc2C1O)CCC3 (stereo unspecified) | < 3.70 | 5.74 |  |
| Cc1ccc(S(=O)(=O)NC(=O)NC23CC4CC(CC(F)(C4)C2)C3)cc1 | < 3.17 | 3.47 |  |

| SMILES | pEC50 | pIC50 | outcome |
| --- | --- | --- | --- |
| Cn1cc(-c2ccc3c4ccccc4n(C)c3c2)c2ccccc21 | < 5.06 | < 5.06 |  |
| c1cc2nnc1SCCCSc1ccc(nn1)SCCCS2 | < 3.90 | 3.94 |  |
| CC1([N+](=O)[O-])COP(=O)(Nc2cccc(Cl)c2)OC1 (stereo unspecified) | < 3.09 | 3.40 |  |
| COc1ccc(NC(=O)c2cc3cc(N=Nc4ccc(Br)cc4)ccc3oc2=O)cc1 |  |  | inactive |
| COc1ccc2nc3c([N+](=O)[O-])ccc4c3c(c2c1)N(CCCN(C)C)C(=S)N4CCCN(C)C | < 5.70 | 6.27 |  |
| CC1=C(C(=O)Nc2ccccc2C)C(c2ccccc2O)C(C(=O)Nc2ccccc2C)=C(C)N1 | 5.02 | 4.81 |  |
| C[C@]12CCC3[C@@H](CC[C@@H]4c5nonc5CC[C@]34C)C1CCC(=O)N2 (stereo partly specified) | < 4.01 | < 4.01 |  |
| CCOC(=O)NC1=NCCS1 |  |  | inactive |
| C=CCOc1ccc(/C(N=Nc2ccc(Cl)cc2)=N/NC(=O)c2ccccc2)cc1OC | < 3.70 | 4.06 |  |
| COc1ccc(-c2oc3c(Cl)cc(Cl)cc3c(=O)c2O)cc1OC | < 3.70 | < 3.70 |  |
| COC1(OC)CC2C(=O)CCCC21OC (stereo unspecified) | < 3.22 | < 3.22 |  |
| Cn1c(=S)c2c(nc(SCCc3ccccc3)n2CCc2ccccc2)n(C)c1=O | < 3.70 | 4.53 |  |
| Cc1cc(=NCCCN(C)C)c2ccc3c(ccc4c(=NCCCN(C)C)cc(C)n(O)c43)c2n1O | < 3.70 | 4.99 |  |
| NC(=O)C(=CNC(=S)Nc1ccccc1)C(N)=O | < 3.70 | < 3.70 |  |
| CC1(C)OCC(C2OC(N3O[C@H](CI)C[C@@H]3c3ccccc3)C3OC(C)(C)OC23)O1 (stereo partly specified) | 3.86 | < 3.70 |  |
| O=C(O)c1c2ccccc2nc2[nH]c(=O)[nH]c(=O)c12 |  | 3.85 | inactive |
| Cc1ccccc1C(O)(c1nccn1C)c1nccn1C | < 3.70 | < 3.70 |  |
| Cc1c2c(n(CCc3ccc(Cl)cc3)c1C)NN=C(C#N)S2(=O)=O | < 3.70 | 4.07 |  |
| O=C1c2ccccc2N2Oc3ccccc3C12c1ccccc1 (stereo unspecified) | < 4.34 | < 4.34 |  |
| OCCOCC#CCOCCO | < 3.70 | < 3.70 |  |
| C=C(Nc1ccc([N+](=O)[O-])cc1[N+](=O)[O-])c1c/c(=N\NC(N)=S)c2ccccc2o1 | < 3.93 | < 3.93 |  |
| CCN(CC)CCSc1c(C(C)=O)c(=O)n(-c2ccccc2)c(=S)n1-c1ccccc1 | < 3.70 | 5.94 |  |

Source: PubChem BioAssay AID179 (DTP/NCI, 2004)
